This note sets out measurements from ChEMBL document CHEMBL4118121, “Anticomplement compounds from Polygonum chinense” (Bioorg Med Chem Lett, 2018).

In brackets after ≈: the same amount, converted by molar mass. Activity calls are given as the source filed them. The rule behind the calls is not given here. Some results are limits rather than exact numbers.

For experiment [1], the system named is Erythrocyte. Briefly: Anticomplement activity in rabbit erythrocytes assessed as concentration required for 50% hemolytic inhibition by alternative pathway pretreated for 10 mins with normal human serum followed by erythrocyte addition measured after 30 mins by spectrophotometeric method. The class given is functional, cell-based. The following applies: Oryctolagus cuniculus.

Experiment [2] deals with Erythrocyte. In words: Anticomplement activity in sheep erythrocytes assessed as concentration required for 50% hemolytic inhibition by classic pathway pretreated for 10 mins with guinea pig serum followed by erythrocyte addition measured after 30 mins by spectrophotometeric method. The class given is functional, cell-based. The conditions noted are these: Ovis aries.
In experiment [3] the test system is Erythrocyte. Briefly: Anticomplement activity in sheep erythrocytes assessed as inhibition of hemolysis by classical pathway after 30 mins of compound treatment in normal human serum with C3-depleted sera. The conditions noted are these: Ovis aries. The class given is functional, cell-based.
Experiment [4] concerns Erythrocyte. Briefly: Anticomplement activity in sheep erythrocytes assessed as inhibition of hemolysis by classical pathway after 30 mins of compound treatment in normal human serum with C1q-depleted sera. The class given is functional, cell-based. The following applies: Ovis aries.
For experiment [5], the system named is Erythrocyte. Briefly: Anticomplement activity in sheep erythrocytes assessed as inhibition of hemolysis by classical pathway after 30 mins of compound treatment in normal human serum with C5-depleted sera. The class given is functional, cell-based. The conditions noted are these: Ovis aries.
The subject of experiment [6] is Erythrocyte. In words: Anticomplement activity in sheep erythrocytes assessed as inhibition of complete hemolysis by classical pathway after 30 mins of compound treatment in normal human serum. The following applies: Ovis aries, 0.5 h. The class given is functional.
The subject of experiment [7] is Erythrocyte. Briefly: Anticomplement activity in sheep erythrocytes assessed as inhibition of hemolysis by classical pathway after 30 mins of compound treatment in normal human serum with C9-depleted sera. The class given is functional, cell-based. The conditions noted are these: Ovis aries.
For experiment [8], the system named is Erythrocyte. Briefly: Anticomplement activity in sheep erythrocytes assessed as inhibition of hemolysis by classical pathway after 30 mins of compound treatment in normal human serum with C2-depleted sera. The following applies: Ovis aries. The class given is functional, cell-based.
Experiment [9] deals with Erythrocyte. Briefly: Anticomplement activity in sheep erythrocytes assessed as inhibition of hemolysis by classical pathway after 30 mins of compound treatment in normal human serum with C4-depleted sera. The experiment is classed as functional, cell-based. The conditions noted are these: Ovis aries.
Experiment [10] concerns Erythrocyte. In words: Anticomplement activity in sheep erythrocytes assessed as inhibition of hemolysis by classical pathway by measuring hemolysis after 30 mins of compound treatment in normal human serum with C5-depleted sera relative to control. The experiment is classed as functional, Ovis aries.
Experiment [11] concerns Erythrocyte. In words: Anticomplement activity in sheep erythrocytes assessed as inhibition of hemolysis by classical pathway by measuring hemolysis after 30 mins of compound treatment in normal human serum with C9-depleted sera relative to control. The experiment is classed as functional, Ovis aries.
In experiment [12] the test system is Erythrocyte. Briefly: Anticomplement activity in sheep erythrocytes assessed as inhibition of hemolysis by classical pathway by measuring hemolysis after 30 mins of compound treatment in normal human serum with C3-depleted sera relative to control. The experiment is classed as functional, Ovis aries.
Experiment [13] relates to Erythrocyte. Briefly: Anticomplement activity in sheep erythrocytes assessed as inhibition of hemolysis by classical pathway by measuring hemolysis after 30 mins of compound treatment in normal human serum with C4-depleted sera relative to control. The class given is functional, Ovis aries.

Usually IC50 stands for the midpoint of a concentration-inhibition curve. Regarding `COc1cc([C@@H]2OC(=O)[C@@H]3[C@H]2CO[C@H]3c2ccc(O)c(OC)c2)ccc1O`, the IC50 in [1] is 1160 µM; in experiment [2] it was 880 µM.
On the same counts, the results for `CCOC(=O)c1cc(O)c(O)c(O)c1` [ETHYLGALLATE] are 1240 µM and 1000 µM.
On the same counts, the results for `COC(=O)C1CC(=O)c2oc(=O)c3cc(O)c(O)c(O)c3c21` (configuration not stated) [METHYLBREVIFOLIN CARBOXYLATE] are 1260 µM and 1040 µM.
On to `COc1c(O)cc2c(=O)oc3c(OC)c(O)cc4c(=O)oc1c2c34`, for which the IC50 in experiment [1] is 1070 µM; in experiment [2], 870 µM.
On the same counts, the results for `O=C(O)/C=C/c1ccc(O)c(O)c1` [CAFFEIC ACID] are 940 µM and 750 µM.
With `COc1cc(/C=C/C(=O)NCCc2ccc(O)cc2)ccc1O` [N-TRANS-FERULOYL TYRAMINE], the IC50 in [1] amounted to 1330 µM; in experiment [2], 880 µM.
The like results for `O=C1CCc2c1oc(=O)c1cc(O)c(O)c(O)c21` were, in that order, 1560 µM and 1250 µM.
On the same counts, the results for `CC1(C)OC[C@H]([C@@H]2OC(=O)[C@]3(O)[C@@H]2OC(=O)C[C@H]3c2ccc(O)cc2)O1` are 1170 µM and 920 µM.
`Cc1ccc(C(=O)Nc2ccc(S(=O)(=O)O)c3cc(S(=O)(=O)O)cc(S(=O)(=O)O)c23)cc1NC(=O)c1cccc(NC(=O)Nc2cccc(C(=O)Nc3cc(C(=O)Nc4ccc(S(=O)(=O)O)c5cc(S(=O)(=O)O)cc(S(=O)(=O)O)c45)ccc3C)c2)c1` [SURAMIN]: the IC50 in [1] was determined as 180 µM; in [2], 120 µM.
On to `CCOC(=O)C1CC(=O)c2oc(=O)c3cc(O)c(O)c(O)c3c21` (configuration not stated) [ETHYLBREVIFOLIN CARBOXYLATE], for which the IC50 was determined as 1360 µM in experiment [1] and 1080 µM in experiment [2].
In the case of `COc1cc([C@@H](O)[C@@H]2C(=O)NCCc3ccc(cc3)Oc3ccc(cc3)CCNC(=O)/C=C/c3cc(OC)c(O)c2c3)ccc1O`, the IC50 in experiment [1] came out at 720 µM; in experiment [2], 520 µM.
On the same counts, the results for `CC(=O)N[C@H]1[C@@H](O[C@H]2[C@H](O)[C@@H](O)[C@H](O[C@H]3[C@H](OS(=O)(=O)O)[C@@H](OS(=O)(=O)O)[C@@H](O[C@H]4[C@H](O)[C@@H](OS(=O)(=O)O)C(O)O[C@H]4C(=O)O)O[C@@H]3CO)O[C@@H]2C(=O)O)O[C@H](COS(=O)(=O)O)[C@@H](O)[C@@H]1O` (some centres not stated) are 135 µg/mL and 93 µg/mL.
As to `COc1cc(/C=C/C(=O)OCCc2ccc(O)cc2)ccc1O`, the values for the IC50 in experiment [1] and in experiment [2] were 1010 µM and 660 µM, respectively.
As to `COc1cc(/C=C(/C(=O)NCCc2ccc(O)cc2)c2cc(OC)c(O)c(OC)c2)ccc1O`, the IC50 amounted to 2800 µM in experiment [1] and 1340 µM in [2].
On the same counts, the results for `CCOC(=O)[C@H]1OC(=O)c2cc(O)c(O)c(O)c2[C@@H]1CC(=O)OC` are 1840 µM and 1450 µM.
As a reminder, the MIC is the lowest concentration found to suppress growth. Consider `COc1c(O)cc2c(=O)oc3c(O)c(O[C@@H]4O[C@@H](C)[C@H](O)[C@@H](O)[C@H]4O)cc4c(=O)oc1c2c34`, for which the IC50 came out at 260 µM in experiment [1] and 180 µM in experiment [2]. Further, the inhibition entry in experiment [3], in [4] and in experiment [5] was “Active” in each case. Besides, the MIC in experiment [6] was found to be 340 µM (≈ 157 µg/mL).
Take `COC(=O)c1cc(O)c(O)c(O)c1` [GALLIC ACID METHYL ESTER]: the figures for the IC50 in experiment [1] and in [2] were 1070 µM and 840 µM, respectively.
For the compound `CCOC(=O)[C@@H](CC(=O)OC)[C@H]1c2c(cc(O)c(O)c2O)C(=O)O[C@@H]1C(=O)OCC`, the values for the IC50 in experiment [1] and in [2] were 1530 µM and 1250 µM, respectively.
For the compound `CCOC(=O)[C@H]1OC(=O)c2cc(O)c(O)c(O)c2[C@@H]1[C@H](CC(=O)O)C(=O)O`, the IC50 in [1] was 550 µM; in [2] it was 460 µM. Also, the inhibition result in experiment [3], in [9] and in experiment [5] was “Active” throughout. For the same compound, the inhibition result in experiment [4], in experiment [7] and in experiment [8] was “inactive” each time. For the same compound, the MIC in experiment [6] turned out to be 840 µM (≈ 323 µg/mL).
As to `O=C(O)C[C@H](C(=O)O)[C@H]1c2c(cc(O)c(O)c2O)C(=O)O[C@@H]1C(=O)O`, the IC50 in [1] is 730 µM; in experiment [2] it was 620 µM.
On to `COc1cc([C@H]2c3cc(O)c(OC)cc3/C(=C/C(=O)NCCc3ccc(O)cc3)[C@H]2C(=O)NCCc2ccc(O)cc2)ccc1O`, for which the IC50 in [1] came to 420 µM; in experiment [2] it was 390 µM. The inhibition result in [3] and in [9] was “Active” each time. In addition, the MIC in [6] came to 820 µM (≈ 512 µg/mL).
In the case of `COc1cc2c(=O)oc3c(O)c(OC)cc4c(=O)oc(c1O)c2c34`, the IC50 in experiment [1] was found to be 1310 µM; in [2], 1100 µM.
For the compound `CCOC(=O)[C@@H](CC(=O)O)[C@H]1c2c(cc(O)c(O)c2O)C(=O)O[C@@H]1C(=O)OCC`, the values for the IC50 in [1] and in experiment [2] were 870 µM and 770 µM, respectively.
In the case of `O=c1oc2c(O)c(O)cc3c(=O)oc4c(O)c(O)cc1c4c23` [ELLAGIC ACID], the IC50 in experiment [1] and in experiment [2] was 320 µM throughout.
For the compound `COc1c(O)cc2c(=O)oc3c(O)c(O)cc4c(=O)oc1c2c34`, the IC50 was found to be 670 µM in experiment [1] and 580 µM in [2].
Regarding `COc1c(O)cc2c(=O)oc3c(OC)c(O[C@@H]4OC[C@@H](O)[C@H](O)[C@H]4O)cc4c(=O)oc1c2c34`, the IC50 in experiment [1] came to 290 µM; in experiment [2] it was 230 µM.
For the compound `O=C1C[C@@H](c2ccc(O)cc2)[C@]2(O)C(=O)O[C@@H]([C@H](O)CO)[C@H]2O1`, the “inhibition (INH)” value in experiment [10], in experiment [11], in [12] and in experiment [13] was under 10.6% throughout. For the same compound, the figures for the IC50 in [1] and in experiment [2] were 990 µM and 730 µM, respectively. The inhibition entry in experiment [4] and in [8] was “inactive” in each case. Further, the MIC in experiment [6] worked out at 1760 µM (≈ 571 µg/mL).
On to `O=C(O)c1cc(O)c(O)c(O)c1` [GALLIC ACID], for which the IC50 in experiment [1] worked out at 740 µM; in [2], 590 µM.
